Experimental data taken from patent publication US7910559B2, “Decladinosyl-macrolides with anti-inflammatory activity” (GlaxoSmithKline istrazivacki centar Zagreb d.o.o., priority 2005, dated 2011).
Read-outs that look alike come from different tables or passages of the source.

Assays:
Type in all cases: cell-based
[1] = test system: human TNF-α; assay: Inhibition of TNF-α production by stimulated human peripheral blood leukocytes in vitro (ELISA); details: Homo sapiens, Leukocyte, PBL, read-out: Percentage of inhibition of TNF-α production; for inhibition at 10 µM: compound 10 μM; for inhibition at 50 µM: compound 50 μM
Experimental: (§1) Substances, used in in vitro experiments, were dissolved in dimethyl sulfoxide (DMSO) (Kemika, Croatia) at concentrations of 50 mM and 10 mM and were further diluted to the final concentrations of […] in 1 mL Dulbecco's modified Eagle medium (DMEM) supplemented with 1% heat inactivated fetal bovine serum (FBS), 1% glutamax, 50 U/ml penicillin, 50 μg/ml streptomycin and 2.5 μg/mL Fungizone (amphotericin B). Media and all media supplements were purchased from Gibco, Australia, except FBS that was from Sigma, USA.
(§2) Peripheral blood leukocytes (PBL) were obtained from venous blood of healthy volunteers by sedimentation on 2% dextran T-500 (Amersham Biosciences, USA) and subsequent centrifugations of leukocyte-rich plasma.
(§3) Peripheral blood leukocytes (PBL), isolated as described above, were seeded in a 48-well plate at a concentration of 3-5×10^6 cell per well in culture medium consisting of RPMI 1640 medium (Institute of Immunology, Croatia) supplemented with 10% heat-inactivated fetal calf serum (FCS, Biowhittaker, USA), 100 U/ml penicillin (Gibco, Australia), 100 μg/ml streptomycin (Gibco, Australia) and 2 mM L-glutamine (Gibco, Australia), and preincubated with the tested compounds for 2 h at 37° C., in an atmosphere of 5% CO2, and 90% humidity. Afterwards, stimuli (Sigma, USA) were added to a final concentration of 2 μg/mL lipopolysaccharide (LPS), 1 μg/mL phorbol 12-myristate 13-acetate (PMA) or 120 μg/mL zymosan. Samples were incubated overnight under conditions described above. At the end of incubation supernatants were transferred to eppendorf tubes and centrifuged for 10 min at 1500 g. Concentrations of human TNF-α, IL-1β, IL-6 and IL-8 were determined in cell supernatants by sandwich ELISA, using capture and detection antibodies (R&D, USA) according to manufacturer's recommendations.
(§4) Inhibition (as percentage) was calculated using the following formula: % inhibition=(1−concentration of cytokines in sample/concentration of cytokines in positive control)×100 where “positive control” refers to stimulated samples not treated with substances.

[2] = test system: human IL-1β; assay: Inhibition of IL-1β production by stimulated human peripheral blood leukocytes in vitro (ELISA); details: Homo sapiens, Leukocyte, PBL, read-out: Percentage of inhibition of IL-1β production; for inhibition at 10 µM: compound 10 μM; for inhibition at 50 µM: compound 50 μM
Experimental: as §1, §2, §3, §4

[3] = test system: human IL-6; assay: Inhibition of IL-6 production by stimulated human peripheral blood leukocytes in vitro (ELISA); details: Homo sapiens, Leukocyte, PBL, read-out: Percentage of inhibition of IL-6 production; for inhibition at 10 µM: compound 10 μM; for inhibition at 50 µM: compound 50 μM
Experimental: as §1, §2, §3, §4

[4] = test system: human IL-8; assay: Inhibition of IL-8 production by stimulated human peripheral blood leukocytes in vitro (ELISA); details: Homo sapiens, Leukocyte, PBL, read-out: Percentage of inhibition of IL-8 production; for inhibition at 10 µM: compound 10 μM; for inhibition at 50 µM: compound 50 μM
Experimental: as §1, §2, §3, §4

[5] = test system: A549; details: human, 24 h
Experimental: (§5) Anti-inflammatory activity of compounds, i.e. observed inhibition of cytokine production and inhibition of proliferation in vitro, is not a consequence of their cytotoxicity.
(§6) Measurement of the succinate dehydrogenase activity in living cells was performed in order to assess the cytotoxicity of compounds of the invention. Cells were cultured for 24 hours in RPMI medium as described above at 37° C., in the presence of the tested compounds at concentrations of 50 μM and 12.5 μM. Afterwards, MTT [3-(4,5-dimethylthiazole-2-yl)-2,5-diphenyl tetrazolium bromide] (Promega, USA) as detection reagent was added and incubated for 0.5-2 hours. The amount of produced MTT-Formazan was determined spectrophotometrically at 490 nm (Mosmann, J. Immunol. Methods, 1983, 65: 55-63).
(§7) Percentage of viable cells was calculated using the following formula: % viable cells=[…]

[6] = test system: Hep G2; details: human, 24 h
Experimental: as §5, §6, §7

[7] = test system: THP-1; details: human, 24 h
Experimental: as §5, §6, §7

| Structure (SMILES) | inhibition at 10 µM ([1]; LPS stimulation) | inhibition at 50 µM ([1]; LPS stimulation) | inhibition at 10 µM ([1]; PMA stimulation) | inhibition at 50 µM ([1]; PMA stimulation) | inhibition at 10 µM ([1]; zymosan stimulation) | inhibition at 50 µM ([1]; zymosan stimulation) | inhibition at 10 µM ([2]; LPS stimulation) | inhibition at 50 µM ([2]; LPS stimulation) | inhibition at 10 µM ([2]; PMA stimulation) | inhibition at 50 µM ([2]; PMA stimulation) | inhibition at 10 µM ([2]; zymosan stimulation) | inhibition at 50 µM ([2]; zymosan stimulation) | inhibition at 10 µM ([3]; LPS stimulation) | inhibition at 50 µM ([3]; LPS stimulation) | inhibition at 10 µM ([3]; PMA stimulation) | inhibition at 50 µM ([3]; PMA stimulation) | inhibition at 10 µM ([3]; zymosan stimulation) | inhibition at 50 µM ([3]; zymosan stimulation) | inhibition at 10 µM ([4]; LPS stimulation) | inhibition at 50 µM ([4]; LPS stimulation) | other results |
| --- | --- | --- | --- | --- | --- | --- | --- | --- | --- | --- | --- | --- | --- | --- | --- | --- | --- | --- | --- | --- | --- |
| CC[C@H]1OC(=O)[C@H](C)[C@@H](OC(=O)CCN(CC)CC)[C@H](C)[C@@H](O[C@@H]2O[C@H](C)C[C@H](N(C)C)C2O)[C@](C)(O)C[C@@H](C)CN(C)[C@H](C)[C@@H](O)[C@]1(C)O (stereo in doubt) [Example 12, 3-O-(3-Diethylamino-propionyl)-3-O-decladinosyl-azithromycin] | 22% | 0% | 30% | 75% | 33% | 0% | 50% | 71% | 54% | 92% | 29% | 72% | 9% | 19% | 43% | 93% | 0% | 96% | 16% | 51% | inhibition at 10 µM ([4]; PMA stimulation): 31%; inhibition at 50 µM ([4]; PMA stimulation): 27%; inhibition at 10 µM ([4]; zymosan stimulation): 20%; inhibition at 50 µM ([4]; zymosan stimulation): 52%; Percentage of viable cells after treatment ([5]; 12.5 μM): >90%; Percentage of viable cells after treatment ([5]; 50 μM): >90%; Percentage of viable cells after treatment ([6]; 12.5 μM): >95%; Percentage of viable cells after treatment ([6]; 50 μM): >90%; Percentage of viable cells after treatment ([7]; 12.5 μM): >90%; Percentage of viable cells after treatment ([7]; 50 μM): 100% |
| C=CC(=O)O[C@H]1[C@H](C)[C@@H](O[C@@H]2O[C@H](C)C[C@H](N(C)C)[C@H]2O)[C@](C)(OC)C[C@@H](C)C(=O)[C@H](C)[C@@H](O)[C@](C)(O)[C@@H](CC)OC(=O)[C@@H]1C [Example 4, 3-O-Propenoyl-3-O-decladinosyl-6-O-methyl-erythromycin A] | 0% | 100% | 69% | 100% | 0% | 100% | 75% | 100% | 97% | 100% | 61% | 100% | 37% | 100% | 96% | 100% | 55% | 100% | 29% | 100% | inhibition at 10 µM ([4]; PMA stimulation): 55%; inhibition at 50 µM ([4]; PMA stimulation): 90%; inhibition at 10 µM ([4]; zymosan stimulation): 10%; inhibition at 50 µM ([4]; zymosan stimulation): 100%; Percentage of viable cells after treatment ([5]; 12.5 μM): >95%; Percentage of viable cells after treatment ([5]; 50 μM): >95%; Percentage of viable cells after treatment ([6]; 12.5 μM): >85%; Percentage of viable cells after treatment ([6]; 50 μM): >95%; Percentage of viable cells after treatment ([7]; 12.5 μM): 100%; Percentage of viable cells after treatment ([7]; 50 μM): 100% |
| CC[C@H]1OC(=O)[C@H](C)[C@@H](OC(=O)CCN(CC)CC)[C@H](C)[C@@H](O[C@@H]2O[C@H](C)C[C@H](NC)[C@@H]2O)[C@](C)(OC)C[C@@H](C)C(=O)N[C@H](C)[C@@H](O)[C@]1(C)O [Example 10, 3-O-(3-Diethylamino-propionyl)-3-O-decladinosyl-3′-N-demethyl-6-O-methyl-9a-aza-9a-homoerythromycin A] | 6% | 65% | 68% | 78% | 10% | 75% | 70% | 88% | 80% | 94% | 78% | 100% | 35% | 92% | 69% | 92% | 40% | 100% | 13% | 77% | inhibition at 10 µM ([4]; PMA stimulation): 23%; inhibition at 50 µM ([4]; PMA stimulation): 76%; inhibition at 10 µM ([4]; zymosan stimulation): 6%; inhibition at 50 µM ([4]; zymosan stimulation): 82%; Percentage of viable cells after treatment ([5]; 12.5 μM): >80%; Percentage of viable cells after treatment ([5]; 50 μM): >90%; Percentage of viable cells after treatment ([6]; 12.5 μM): 100%; Percentage of viable cells after treatment ([6]; 50 μM): 100%; Percentage of viable cells after treatment ([7]; 12.5 μM): 100%; Percentage of viable cells after treatment ([7]; 50 μM): 100% |
